Assay results as given in patent US20140135310A1, “SULPHONAMIDE DERIVATIVES OF ALICYCLIC AMINES FOR THE TREATMENT OF CENTRAL NERVOUS SYSTEM DISEASES” (Adamed Sp. z o.o., priority 2011, published 2014).

Experiments:
[1] = target: 5-HT7 serotoninergic receptors (Homo sapiens, UniProt P34969); assay: Cellular functional assay, 5-HT7 serotoninergic receptors; format: cell-based; settings: for 5-HT7 ag [%]: agonist mode, percent of control specific agonist response
Outline: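 Responses expressed as percent of control specific agonist response; EC50 or IC50 from Hill-equation nonlinear fits of mean replicate concentration-response curves. For antagonists, Kb derived by modified Cheng-Prusoff using reference agonist concentration and its EC50.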

5-HT6 receptor = target: T1, 5-HT6 receptor (Homo sapiens, UniProt P50406); assay: Radioligand binding assay, serotoninergic 5-HT6 receptors; settings: binding assay result in %, Table 5a;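 further: test compound at 1 µM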
T1 construct: purchased PerkinElmer
T1 sequence (P50406 whole entry): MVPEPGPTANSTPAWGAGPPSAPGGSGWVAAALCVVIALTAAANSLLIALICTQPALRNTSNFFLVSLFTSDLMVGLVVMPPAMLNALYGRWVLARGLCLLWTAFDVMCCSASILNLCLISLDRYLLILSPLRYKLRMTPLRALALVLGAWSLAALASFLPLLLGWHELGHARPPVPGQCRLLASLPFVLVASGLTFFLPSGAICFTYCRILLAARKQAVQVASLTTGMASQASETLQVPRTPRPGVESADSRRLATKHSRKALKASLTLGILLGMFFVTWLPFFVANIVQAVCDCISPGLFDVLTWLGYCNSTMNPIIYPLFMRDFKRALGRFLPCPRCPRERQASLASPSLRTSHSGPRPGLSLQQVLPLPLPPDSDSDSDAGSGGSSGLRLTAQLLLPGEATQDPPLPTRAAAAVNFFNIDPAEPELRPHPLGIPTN
Outline: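 Values are Ki from Cheng–Prusoff, taking IC50 from Hill nonlinear regression of competition curves and KD from a Scatchard plot. Specific binding was total minus binding with excess unlabelled ligand. Radioligand displacement was detected by scintillation counting, and data were also reported as percent of control specific binding.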

5-HT2A receptor = target: T2, 5-HT2A receptor (Homo sapiens, UniProt P28223); assay: Radioligand binding assay, serotoninergic 5-HT2A receptors; settings: binding assay result in %, Table 5a
T2 construct: purchased PerkinElmer
T2 sequence (P28223 whole entry): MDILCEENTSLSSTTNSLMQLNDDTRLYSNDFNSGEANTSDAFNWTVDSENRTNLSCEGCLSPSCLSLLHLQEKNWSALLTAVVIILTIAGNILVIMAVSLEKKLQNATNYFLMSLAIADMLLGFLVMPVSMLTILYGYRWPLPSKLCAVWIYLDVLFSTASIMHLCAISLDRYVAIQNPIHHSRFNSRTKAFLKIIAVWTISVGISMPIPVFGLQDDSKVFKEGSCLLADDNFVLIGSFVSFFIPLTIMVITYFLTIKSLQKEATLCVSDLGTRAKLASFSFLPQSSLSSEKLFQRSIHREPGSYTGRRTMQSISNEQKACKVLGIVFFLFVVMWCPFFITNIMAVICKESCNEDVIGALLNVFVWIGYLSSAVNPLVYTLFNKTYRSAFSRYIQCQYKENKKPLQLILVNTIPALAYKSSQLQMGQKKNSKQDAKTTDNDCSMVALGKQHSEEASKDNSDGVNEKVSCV
Outline: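 Competition curves from scintillation-counted specific binding (total minus binding with excess unlabelled ligand) were Hill-fitted to give IC50, converted to Ki via Cheng-Prusoff using Scatchard-derived Kd.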

[2] = target: dopaminergic receptors D3 (Homo sapiens, UniProt P35462); assay: Radioligand binding assay, dopaminergic D3 receptors; settings: test compound 1×10^−6 M
Chain of dopaminergic receptors D3 (P35462 whole entry): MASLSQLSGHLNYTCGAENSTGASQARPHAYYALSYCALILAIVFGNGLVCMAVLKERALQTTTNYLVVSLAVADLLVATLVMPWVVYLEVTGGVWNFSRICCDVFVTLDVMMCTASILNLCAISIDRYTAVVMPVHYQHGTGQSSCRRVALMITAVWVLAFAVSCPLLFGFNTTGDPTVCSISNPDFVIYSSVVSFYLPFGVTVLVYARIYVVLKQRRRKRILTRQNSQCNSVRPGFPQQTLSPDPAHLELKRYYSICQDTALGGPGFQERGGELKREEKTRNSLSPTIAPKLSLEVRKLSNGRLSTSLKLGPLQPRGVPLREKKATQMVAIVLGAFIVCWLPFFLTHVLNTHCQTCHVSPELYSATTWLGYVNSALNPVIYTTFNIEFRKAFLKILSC
Outline: (§1)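 Scintillation read-out. Specific = total − nonspecific (excess cold ligand). Data as % of control specific binding / % inhibition; IC50 by Hill fit; Ki = IC50/(1+L/KD), KD from Scatchard plot.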

σ receptors = assay: Radioligand binding assay, σ receptors; settings: rat cerebral cortex, [3H]DTG 8 nM
Outline: (§2)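 Values derive from radioligand displacement, with non-specific binding defined by excess cold ligand and detection by scintillation. Hill-fit IC50s were converted to Ki via Cheng-Prusoff using Scatchard-derived Kd; percent inhibition of control specific binding also reported.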

[3] = tested on: α1 adrenergic receptors (rat cerebral cortex); assay: Radioligand binding assay, adrenergic α1 receptors; settings: test compound 1×10^−6 M
Outline: as §2

receptors D4.4 = target: T3, receptors D4.4 (Homo sapiens, UniProt P21917); assay: Radioligand binding assay, dopaminergic D4 (D4.4) receptors; settings: test compound 1×10^−6 M
T3 sequence (P21917 1-419): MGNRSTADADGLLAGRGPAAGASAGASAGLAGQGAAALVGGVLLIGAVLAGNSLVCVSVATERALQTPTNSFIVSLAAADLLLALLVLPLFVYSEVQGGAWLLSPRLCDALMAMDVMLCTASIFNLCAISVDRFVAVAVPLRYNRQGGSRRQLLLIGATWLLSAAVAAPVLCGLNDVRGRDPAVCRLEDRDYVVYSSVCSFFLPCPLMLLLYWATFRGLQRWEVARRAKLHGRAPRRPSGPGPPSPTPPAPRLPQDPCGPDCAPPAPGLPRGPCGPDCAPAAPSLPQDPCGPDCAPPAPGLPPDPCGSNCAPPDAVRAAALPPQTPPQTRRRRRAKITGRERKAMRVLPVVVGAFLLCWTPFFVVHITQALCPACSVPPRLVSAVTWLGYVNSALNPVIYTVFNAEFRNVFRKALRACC
Outline: as §1

M3 muscarinic receptors = target: T4, M3 muscarinic receptors (Homo sapiens, UniProt P20309); assay: Radioligand binding assay, muscarinic M3 receptors; settings: test compound 1×10^−6 M
T4 construct: expressed in transfected cells; host or cells: CHO cells
T4 sequence (P20309 whole entry): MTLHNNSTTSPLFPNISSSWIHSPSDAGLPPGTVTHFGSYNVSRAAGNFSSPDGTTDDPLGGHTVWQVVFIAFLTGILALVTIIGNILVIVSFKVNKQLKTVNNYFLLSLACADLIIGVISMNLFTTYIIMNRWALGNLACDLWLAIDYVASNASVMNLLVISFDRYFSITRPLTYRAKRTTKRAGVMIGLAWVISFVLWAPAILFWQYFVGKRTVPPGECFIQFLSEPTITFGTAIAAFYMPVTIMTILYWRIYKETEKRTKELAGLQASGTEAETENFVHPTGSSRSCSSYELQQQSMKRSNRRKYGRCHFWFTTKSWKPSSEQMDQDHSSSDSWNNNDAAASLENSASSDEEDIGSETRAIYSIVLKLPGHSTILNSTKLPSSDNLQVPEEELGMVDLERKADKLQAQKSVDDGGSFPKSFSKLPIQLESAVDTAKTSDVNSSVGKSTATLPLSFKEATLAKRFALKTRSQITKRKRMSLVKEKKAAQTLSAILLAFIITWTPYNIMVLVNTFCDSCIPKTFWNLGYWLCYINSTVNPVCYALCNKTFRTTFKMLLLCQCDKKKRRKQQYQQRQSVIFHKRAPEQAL
Outline: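 Radioligand competition binding, detected by scintillation counting; non-specific binding defined with excess unlabelled ligand. Results given as % inhibition of control specific binding; IC50 from Hill-equation fit of competition curves, Ki via Cheng-Prusoff with radioligand KD from Scatchard plot.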

Chain of 5-HT7 serotoninergic receptors (P34969 whole entry): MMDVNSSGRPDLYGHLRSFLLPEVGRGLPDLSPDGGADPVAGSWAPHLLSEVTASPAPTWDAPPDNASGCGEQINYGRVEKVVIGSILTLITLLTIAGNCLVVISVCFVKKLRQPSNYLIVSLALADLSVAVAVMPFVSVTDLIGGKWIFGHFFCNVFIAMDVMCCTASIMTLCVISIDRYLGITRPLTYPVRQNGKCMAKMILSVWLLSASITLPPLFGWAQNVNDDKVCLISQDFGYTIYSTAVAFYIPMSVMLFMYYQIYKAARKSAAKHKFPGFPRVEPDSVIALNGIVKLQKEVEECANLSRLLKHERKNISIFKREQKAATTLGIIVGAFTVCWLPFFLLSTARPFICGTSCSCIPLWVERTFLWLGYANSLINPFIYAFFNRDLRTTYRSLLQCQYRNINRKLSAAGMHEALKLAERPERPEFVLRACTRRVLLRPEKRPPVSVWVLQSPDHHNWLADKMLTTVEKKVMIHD

Molecule	5-HT7 ag [%] [1] [%]	inhibition at 1 µM (5-HT6 receptor) [%]	inhibition at 1 µM (5-HT2A receptor) [%]	inhibition at 1 µM [2] [%]	σ [%] (σ receptors)	α1 [%] [3] [%]	inhibition at 1 µM (receptors D4.4) [%]	inhibition at 1 µM (M3 muscarinic receptors) [%]	5-HT7 antag [%] ([1]; antagonist mode)	5-HT6 [%] (5-HT6 receptor)	5-HT2A [%] (5-HT2A receptor)	D3 [%] [2] [%]	D4.4 [%] (receptors D4.4)	M3 [%] (M3 muscarinic receptors)
O=S(=O)(NCC1CCN(CCCc2noc3cc(F)ccc23)C1)c1cccc2ccccc12 (stereo not shown) [Compound 239, N-[[1-[3-(6-Fluoro-1,2-benzoxazol-3-yl)propyl]pyrrolidin-3-yl]methyl]naphthalene-1-sulphonamide]	1	97	98	76	97	91	78	23						
O=S(=O)(NCC1CCN(CCCc2noc3cc(F)ccc23)C1)c1ccc2ccccc2c1 (stereo not shown) [Compound 240, N-[[1-[3-(6-Fluoro-1,2-benzoxazol-3-yl)propyl]pyrrolidin-3-yl]methyl]-naphthalene-2-sulphonamide]	0	93	99	75	92	86	57	21						
N-[[1-[2-[(2,2-Dimethyl-3H-benzofuran-7-yl)oxy]ethyl]azetidin-3-yl]methyl]-3-hydroxy-benzenesulphonamide [Compound 111]	24				81	68			55	41	92	87	61	14
